According to EPA's CvTdb concentration-time database:

What was measured:
[1] = test system: Rat; experiment: concentration in liver after dosing; conditions: oral
[2] = test system: Rat; experiment: concentration in brain after dosing; conditions: oral
[3] = test system: Rat; experiment: concentration in kidney after dosing; conditions: oral
[4] = test system: Rat; experiment: concentration in plasma after dosing

O=C(O)C(F)(F)C(F)(F)C(F)(F)C(F)(F)C(F)(F)F [Perfluorohexanoic Acid]
dosed: Perfluorohexanoic Acid, 80 mg/kg
Conditions	concentration in brain, [2] [ng/g]	concentration in kidney, [3] [ng/g]	concentration in liver, [1] [ng/g]
0.5 h, Female, Harlan Sprague Dawley	1210	55900	32800
0.5 h, Male, Harlan Sprague Dawley	2270	207000	105000
1 h, Female, Harlan Sprague Dawley	1770	98400	42200
1 h, Male, Harlan Sprague Dawley	2670	74100	87200
3 h, Female, Harlan Sprague Dawley	703	45000	8510
3 h, Male, Harlan Sprague Dawley	1170	44300	29600
3 h, Male, Harlan Sprague Dawley - this seems too small	799	56500	36100
6 h, Female, Harlan Sprague Dawley	–	14200	5010
6 h, Male, Harlan Sprague Dawley	495	10900	9650
12 h, Female, Harlan Sprague Dawley	–	663	–
12 h, Male, Harlan Sprague Dawley	–	2880	3140

concentration in plasma [ng/mL], [4], dosed: Perfluorohexanoic Acid
Conditions	40 mg/kg	80 mg/kg
0.25 h, iv, Male, F344	21800	–
0.25 h, oral, Male, Harlan Sprague Dawley	27900	92000
0.5 h, iv, Female, Harlan Sprague-Dawley	6320	–
0.5 h, iv, Male, F344	26100	–
0.5 h, oral, Male, Harlan Sprague Dawley	64700	151000
0.75 h, iv, Female, Harlan Sprague-Dawley	1990	–
0.75 h, iv, Male, F344	12600	–
0.75 h, oral, Male, Harlan Sprague Dawley	55100	110000
1 h, iv, Female, Harlan Sprague-Dawley	327	–
1 h, iv, Male, F344	9120	–
1 h, oral, Male, Harlan Sprague Dawley	48300	127000
1.5 h, iv, Male, F344	7580	–
3 h, iv, Male, F344	3740	–
3 h, oral, Male, Harlan Sprague Dawley	34400	60100
3 h, oral, Male, Harlan Sprague Dawley - this seems too small	–	59500
5 min, iv, Male, F344	22900	–
5 min, oral, Male, Harlan Sprague Dawley	14600	59900
6 h, iv, Male, F344	3840	–
6 h, oral, Male, Harlan Sprague Dawley	18300	27700
9 h, oral, Male, Harlan Sprague Dawley	3710	3460
12 h, iv, Male, F344	57.2	–
12 h, oral, Male, Harlan Sprague Dawley	2040	–
24 h, iv, Male, F344	68.1	–
24 h, oral, Male, Harlan Sprague Dawley	222	627

O=S(=O)([O-])C(F)(F)C(F)(F)C(F)(F)C(F)(F)C(F)(F)C(F)(F)C(F)(F)C(F)(F)F [Perfluorooctane Sulfonate]
dosed: Perfluorooctane Sulfonate
Conditions	concentration in brain, [2] [ng/g]	concentration in kidney, [3] [ng/g]	concentration in liver, [1] [ng/g]
6 h, 2 mg/kg, Female, Harlan Sprague Dawley	–	4960	24800
6 h, 20 mg/kg, Female, F344	3650	112000	118000
6 h, 20 mg/kg, Male, Harlan Sprague Dawley	5430	85500	135000
24 h, 2 mg/kg, Female, Harlan Sprague Dawley	615	5860	24400
24 h, 20 mg/kg, Female, F344	11500	131000	127000
24 h, 20 mg/kg, Male, Harlan Sprague Dawley	9570	66800	148000
864 h, 2 mg/kg, Female, Harlan Sprague Dawley	–	1750	13200
864 h, 20 mg/kg, Female, F344	3420	53400	72900
864 h, 20 mg/kg, Male, Harlan Sprague Dawley	2750	21500	93900
1848 h, 2 mg/kg, Female, Harlan Sprague Dawley	–	923	5150
1848 h, 20 mg/kg, Female, F344	1270	21400	44900
1848 h, 20 mg/kg, Male, Harlan Sprague Dawley	1560	10500	51000
3360 h, 2 mg/kg, Female, Harlan Sprague Dawley	–	517	8200
3360 h, 20 mg/kg, Male, Harlan Sprague Dawley	672	2460	22900

concentration in plasma [ng/mL], [4], dosed: Perfluorooctane Sulfonate, 2 mg/kg
Conditions	Female	Male
1 h, iv, F344	4190	–
1 h, iv, Harlan Sprague-Dawley	4680	–
1 h, oral, Harlan Sprague Dawley	2210	–
5 min, iv, F344	4540	–
5 min, iv, Harlan Sprague-Dawley	4940	–
5 min, oral, Harlan Sprague Dawley	45.8	–
6 h, iv, F344	4360	4280
6 h, oral, Harlan Sprague Dawley	3970	–
12 h, iv, F344	4300	3680
12 h, oral, Harlan Sprague Dawley	7550	–
24 h, iv, F344	4320	3470
24 h, iv, Harlan Sprague-Dawley	3660	–
24 h, oral, Harlan Sprague Dawley	4650	–
192 h, iv, F344	4590	–
192 h, iv, Harlan Sprague-Dawley	2490	–
192 h, oral, Harlan Sprague Dawley	3130	–
528 h, iv, F344	3280	1770
528 h, iv, Harlan Sprague-Dawley	2170	–
528 h, oral, Harlan Sprague Dawley	2690	–
864 h, iv, F344	1540	1300
864 h, oral, Harlan Sprague Dawley	1610	–
1200 h, iv, F344	2010	1650
1200 h, iv, Harlan Sprague-Dawley	650	–
1200 h, oral, Harlan Sprague Dawley	1100	–
1704 h, iv, F344	1840	573
1704 h, iv, Harlan Sprague-Dawley	868	–
1848 h, oral, Harlan Sprague Dawley	780	–
2376 h, iv, F344	750	395
2376 h, iv, Harlan Sprague-Dawley	698	–
2520 h, oral, Harlan Sprague Dawley	388	–
3216 h, iv, F344	90.3	–
3360 h, oral, Harlan Sprague Dawley	237	–
